Laboratory results taken from patent publication US12297438B2, “Gene expression elements and systems and use thereof” (GENENEER LTD., priority 2019, dated 2025).
Structures can show the parent of a compound that is named as a salt.

Assays:
[1] = test system: SBEIIb with ECE in transgenic rice; test: SBEIIb expression and starch content in transgenic rice carrying ECE-SBEIIb; type: in vivo, rice (Nipponbare); conditions: rice grains 10 days post anthesis, activated by BENZ
Excerpt: High levels of the starch branching IIb gene in rice (SBEIIb, GQ150904.1) are typically linked to lower amylose content. Downregulating the activity of SBEIIb can lead to rice seeds with higher amylose content. The SBEIIb coding sequence is cloned from Nipponbare cDNA into pTA vector using the standard PCR reaction. The resulted clone is manipulated to carry the ECE regulatory element. The resulted altered fragment is closed into rice-transformation vector containing the wHMWG promoter and NOS terminator. The vector also contains the hygromycin resistance gene under the control of the CaMV 35S promoter. The vector is transferred into Agrobacterium tumefaciens AGL1. […]
RNA is extracted from rice grains, 10 days post anthesis. cDNA is synthesized from 5 μg of total RNA using cDNA syntheses kit. Quantitative real-time PCR is conducted on 100 ng of cDNA using the SBEIIb primers.
Protein analysis is conducted on soluble native proteins extracted from rice grains obtained 10 days post anthesis. […] Signals are recorded by automatic film processor.
Mature panicles are analyzed for their starch content. Fully developed and mature seeds are collected, weighed, dried and ground and total starch is determined using Total Starch HK Assay (Megazyme) and resistant starch is determined using Resistant Starch Assay Kit (Megazyme).

[2] = test system: transgenic poplar trees with ECE in the CCR gene; test: Lignin content in transgenic poplar carrying ECE-CCR; type: in vivo, Populus tremula×Populus alba; conditions: transgenic trees upon completion of BENZ treatment cycle
Excerpt: Populus trichocarpa cv. Trichobel CCR cDNA (Accession No. AJ224986) is cloned in to pTA vector using standard PCR reaction. ECE assembled by Gibson in to the middle CCR gene by introducing artificial intron. The resulted sequence is cloned under a tandem repeat of the CaMV 35S constitutive promoter and is transferred into the binary vector pBIG-HYG conferring resistance to hygromycin. Binary vector is transferred into Agrobacterium strain LB4404.
Poplar (Populus tremula×Populus alba) plants are transformed by Agrobacterium as described (Leplé et al. 1992, Plant Cell Rep. 11:137-141.) Transformants are selected by hygromycin resistance. Transformation is confirmed by molecular analysis of the insertions.
Four-to-five-month old greenhouse-grown trees are sprayed daily with 100 μM BENZ during a period of 6 months. […]
RT-PCR analysis of CCR is performed at different stages of the growth and development of the trees. […] Quantification of cDNA molecules is performed in five replicates by qPCR machine.
Lignin content is analyzed in samples from different stages of the growth and development of the trees according to Dence, 1992 (Lignin determination. In: Dence C, Lin S, editors. Methods in Lignin Chemistry. Berlin: Springer-Verlag; 1992. pp. 33-61). […] Lignin is then extracted with CH2Cl2, dried over Na2SO4, evaporated under reduced pressure at 40° C., re-dissolved in 1 mL of CH2Cl2 and analyzed by GC-MS

[3] = test system: Nicotiana benthamiana leaf discs transformed with Pzp 1503/syz24-1.2 plasmid (GUS + the mutated ECE); test: GUS reporter expression in tobacco leaf discs (β-glucuronidase assay); type: cell-based; conditions: MS buffer with 50 μM BENZ
Experimental: Protocol 5 ml Agrobacterium starter (transfected with the relevant plasmids) were grown with the selection antibiotics at 28° C. with agitation of 350 rpm overnight. Thereafter, the solution was centrifuged for 5 min. at 4500 g. The pellet was resuspended in 10 ml Induction Medium supplemented with the relevant antibiotic and 100 μM Acetosyringone, incubated for 5-6 hours at 28° C., 250 rpm and then centrifuged for 5 min at 4500 g. The bacteria were resuspended in 10 ml Infiltration Medium supplemented with 200 μM Acetosyringone (1M in DMSO). The bacteria density is measured at 660 nm to obtain OD660=1.
Leaf discs were cut from Nicotiana Benthamiana plants and put in 24 wells with 400 μl of the relevant Agrobacterium with or without 50 μM BENZ. Vacuum was applied for 8 min and then slowly released, followed by additional vacuum cycle of 1 min and slow release and incubation for 10 min. The leaf discs were then separated from the Agrobacterium suspension and resuspended with MS buffer with or without 50 μM BENZ and incubated at 24° C. for three days. At the end of the incubation, the leaf discs were subjected to β-glucuronidase (GUS) assay.
β-Glucuronidase (GUS) Assay
• 1. […]

[4] = test system: F293 cells transfected with the ECE-CAS9 plasmid; test: CAS activity in F293 cells transfected with ECE-CAS9 plasmid (Bpu10I cut/uncut ratio); type: cell-based; conditions: DMEM supplemented with 10 μM BENZ, 48 hours
Excerpt: In one example, the ECE regulatory element of the present invention can be used to determine the expression level of the CRISPR-CAS9 complex (Gene Bank Accession No. KF264451) allowing timely editing of the genome. The viral (Px330) CRISPER CAS system can be acquired from “addgene” (plasmid #117919). The ECE regulatory element is synthesized with the sequence of the BseRI restriction site to produce an expression system of the invention having SEQ ID NO:51, and then to be inserted into the 117919 plasmid (SEQ ID NO:57). The ECE sequence is located within the artificial hybrid intron, known to increase transcription levels.
Plasmid was transfected in to F293 cells by Lipofectamine 3000 (L3000015 ThermoFisher) according to the manufacturer instructions. Immediately following transfection cells were incubated with either DMEM or DMEM supplemented with BENZ for 48 hours.
The sgRNA is designed to target the cyclin D1 gene (Accession BC023620) at the Bpu 10I restriction site (sgRNA=[…], SEQ ID NO:60). The efficiency of the CRISPER assay is determined by extracting the DNA, digesting it with Bpu10I and measuring, by bioanalyser, the ratio between the cut and uncut fragments, uncut indicates an efficient CAS activity.

[5] = test system: hpt gene with ECE in transgenic tobacco seedlings; test: Conditional expression of hygromycin resistance (hpt) gene with ECE in transgenic tobacco; type: in vivo; conditions: MS media versus MS+20 μM BENZ, seven days
Excerpt: Expression of selection genes is required only during early stages of plant transformation. Following the establishment of a transgenic plant, expression of the selection gene is not required. The hpt gene, conferring resistance to hygromycin, is generated by standard PCR reaction on the pBIGHYG plasmid (binary plasmid) and cloned into pTA vector. The ECE regulatory element is inserted into the hpt gene just after the its ATG start codon by standard Gibson assembly. In addition, the reporting gene GUS: B-glucuronidase is cloned into the pTA vector downstream to the hpt gene under the 35S promoter.
The vector is transferred into Agrobacterium tumefaciens EHAP105.
Tobacco genetic transformation is carried using hygromycin as for selection using a standard transformation protocol. 20 μM BENZ is added to the regeneration and selection medium to facilitate the expression of the selection gene. […] Seeds of heterozygous plants with single insert are selected.
Ten days following planting plants transformed to either MS-based media or remained on MS+20 μM BENZ media. Seven day after, RNA is extracted from transgenic plants. cDNA is synthesized from 20 μg of total RNA using cDNA syntheses kit. Quantitative real-time PCR is conducted on 100 ng of cDNA using the hygromycin-encoding gene primers.

[6] = test system: Arabidopsis thaliana protoplasts transformed with syz24-2.1 plasmid comprising the ECE within the GUS intron; test: GUS reporter expression in Arabidopsis thaliana protoplasts (ECE within GUS intron); type: cell-based
Experimental: Arabidopsis protoplasts were prepared as previously described (Wu F-H et al. 2009. Plant methods 5:16 doi: 10.1186/1746-4811-5-16). Plasmids syz24-2.1 and a control plasmid 5060 (constitutive GUS expression) were transformed (in the presence or without 10 μM BENZ (BZ-CAS 121749-39-1-BZ) into protoplasts (Wu et al., supra). Transfected protoplasts were washed and cultured in W5 solution with or without BENZ (BZ) in 1% bovine serum albumin-coated 15 ml tubes for 16 h at 28° C. to allow expression of the transfected DNA. The GUS expression system enables detection of a functional β-glucuronidase when protoplasts expressing the gene are incubated with the enzyme substrate 5-bromo-4-chloro-3-indolyl glucuronide (X-Glu), where the product of the reaction is a clear blue color. As described hereinabove, the expression system of the invention was introduced into an intron within the GUS encoding gene. […] The following assays were designed: • 1. Non transformed protoplasts • 2. Non transformed protoplasts exposed to 10 μM BENZ • 3. Non transformed protoplasts exposed to 100 μM BENZ • 4. Protoplast transformed with plasmid syz24-2.1 without exposure to BENZ • 5. Protoplast transformed with plasmid syz24-2.1 exposed to 10 μM BENZ • 6. Protoplast transformed with plasmid syz24-2.1 exposed to 100 μM BENZ • 7. Protoplast transformed with plasmid 5060 without exposure to BENZ • 8. Protoplast transformed with plasmid 5060 exposed to 10 μM BENZ • 9. Protoplast transformed with plasmid 5060 exposed to 100 μM BENZ In all assays in which the transformed protoplasts were exposed to BENZ, the transformation and subsequent washes were performed in the presence of the corresponding BENZ concentration (10 or 100 μM). After the last wash, the protoplasts were suspended in W5 buffer containing 10 μM or 100 μM BENZ and placed at 28° C. for 48 h. Thereafter the protoplasts were collected (by spinning at 100gX3 minutes). Protoplasts were resuspended in 0.5 ml 0.5M monitol+0.5 mg X-glucuronide (sigma B5285) and incubated at 37° C. 24 h.

[7] = test system: CCR5 expression in ECE included PBMC cells; conditions: 50 μM spermin
Experimental: Plasmid is transfected in to PBMC cells using standard protocol (lipofectamine) and selected for ECE insertion using NGS analyses. Cells are incubated in CTS™ OpTmizer™ (ThermoFisher A3705001) with or without 50 μM spermin. Cells are then stained with CCR5 antibody (BioLegend 359105) and passed through flow cytometry column to detect the level of CCR5 expression.

SMILES | SBEIIb protein (Western blot) [1] | lignin levels [2] | β-glucuronidase activity (blue color) ([3]; leaf discs transformed with Pzp 1503/syz24-1.2, three days) | β-glucuronidase activity (blue color) ([3]; leaf discs transformed with control plasmid (constitutive GUS)) | CAS activity (increase of uncut fragments) [4] | expression of hygromycin-encoding gene (quantitative real-time PCR) [5] | β-glucuronidase activity (blue color) ([6]; non-transformed protoplasts, 10 μM or 100 μM BENZ) | β-glucuronidase activity (blue color) ([6]; protoplasts transformed with control plasmid 5060 (constitutive GUS), 10 μM or 100 μM BENZ) | β-glucuronidase activity (blue color) ([6]; protoplasts transformed with syz24-2.1, W5 supplemented with 10 μM BENZ) | β-glucuronidase activity (blue color) ([6]; protoplasts transformed with syz24-2.1, W5 supplemented with 100 μM BENZ) | CCR5 expression [7]
CCNCCCNCCCNCCCNCC [BENZ, N^1,N^11-Diethylnorspermine tetrahydrochloride] | increase in SBEIIb | expected to be comparable to transgenic plants, and lower than wild type plants | showed β-glucuronidase activity | expressed β-glucuronidase activity | increase in CAS activity | reduced in the transgenic seedlings when grown on MS media compared to seedling that grow on MS+20 μM BENZ | not observed | β-glucuronidase activity irrespective of the presence of BENZ | only when cells were incubated with W5 supplemented with 100 μM BENZ | showed β-glucuronidase activity | 
NCCCNCCCCNCCCN [spermin, spermine] |  |  |  |  |  |  |  |  |  |  | expected to increase
